Data published in patent publication US5321035A, “Piperidine derivatives and process for preparation thereof” (Shionogi & Co., Ltd., priority 1992, dated 1994).

Columns and labels:
[1] = test system: 7-alkoxycumarin-O-dialkylase; experiment: Enzyme Induction Test (liver microsomal 7-alkoxycumarin-O-dialkylase activities after repeated dosing); type: in vivo, mouse (male, DS)
Description: Male mice (DS, 5-6 week-old) received intraperitoneally 100 mg/kg of the compound (a) of the present invention or the compound (c) (1-[3-}4-(3,4,-dichlorophenyl)-1,2,5,6-tetrahydropiperidin-1-yl}propylcarbamoyl]-2-oxopyrrolidine) suspended in 5% gum arabic once a day for three days. After 24 hrs from the final administration, the liver was removed from the animal, and liver microsome was prepared by means of centrifugal fractionation. Additional liver microsomes were prepared in the same manner as above by intraperitoneally administering a typical enzyme inducer, phenobarbital (dissolved in saline) or β-naphthoflavone (suspended in sesame oil), to mice. Enzymatic activities of the above liver microsomes on drug metabolism were evaluated by determining their 7-alkoxycumarin-O-dialkylase activities.

[2] = test system: [3H]5-HT uptake by synaptosomes; experiment: {3H} Serotonin (5-HT) Uptake Inhibition Test in brain synaptosomes; type: biochemical, rat (male Slc: Wistar strain); settings: for IC50: 5 nM [3H]5-HT, 5 min at 37° C, rat brain synaptosomes
From the text: (1) Evaluation of Effects on Neurotransmittal Systems {^3 H} Serotonin (5-HT) Uptake Inhibition Test
Compound (a): a compound of the present invention
Compound (b): 1-[3-{4-(3,4-dichlorophenyl)-piperidin-1-yl}propylcarbamoyl]-2-oxopyrrolidin (Japanese Patent Publication (KOKAI) No.131155/1989).
Male Slc: Wistar strain rats (12-week-old, Japan SLC).
Rats were killed by decapitation and a whole brain except for cerebellum is isolated immediately. The isolated tissue was homogenized in 20 volume of ice-cold 0.32 M sucrose solution by Potter-type homogenizer and centrifuged at 1,000× g for 10 min. The supernatant is centrifuged at 40,000× g for 20 min. The resultant pellet is resuspended in 20 volume of Krebs-Henseleit buffer containing 1 mM ascorbate, 0.17 mM EDTA and 0.08 mM pargyline by Polytron and centrifuged at 40,000× g for 10 min, which procedure was repeated two more times. The finally obtained pellet was resuspended in 20 volume of ice-cold Krebs-Henseleit buffer using Polytron. The resultant suspension was diluted to 1/10 with the same buffer to give a synaptosome sample.
A mixture of 5 nM [^3 H]5-HT (10 μl), synaptosome sample (480 μl ) and a solution (10 μl ) containing a test compound at a predetermined concentration was incubated for 5 min at 37° C. The reaction was stopped by diluting the mixture with ice-cold Krebs-Henseleit buffer (2.5 ml) and filtering with suction on Whatman GF/C paper. The filter paper was washed three times with ice-cold Krebs-Henseleit buffer (2.5 ml each) and allowed to stand for about 18 hr in Cleasol-1 solution (5 ml). The radioactivity was then measured by means of a liquid scintillation counter. A control experiment was carried out in the same manner as the above using 5 nM [^3 H]5-HT (10 μl ), synaptosome sample (480 μl ) and a solvent (10 μl ) used for dissolving a test compound to obtain blank values of radioactivity. […]

[3] = test system: hippocampus CAI pyramidal cells; experiment: Inhibitory effect against delayed necrosis of hippocampus pyramidal cells after cerebral ischemia (bilateral common carotid artery ligation); type: in vivo, Mongolian gerbil; settings: for injury (%) in pyramidal cell layer: 30 min before 5 min occlusion, 4th day; for inhibition (%) of injury: vs control
Description: Inhibitory effect against the delayed necrosis of hippocampus CAI pyramidal cells was determined.
Compound (a) and compound (b) were again used in this experiment. Three to eight male mice (Mongolian gerbil, 11 to 12-week-old, Seiwa Jikken-dobutsuKenkyusyo) were used for one group.
Each animal was intraperitoneally administered a solution of the test compound (a) or (b) dissolved in distilled water, or only distilled water (for control) at 0.2 ml/100 g weight of the animal. Thirty minutes later, under the halothane anesthesia, bilateral common carotid artery was separated from surrounding tissues and ligated for a period of 5 min with Sugita's artery Klemme. Anesthesia was stopped at the time of artery occlusion. On the 4th day after the operation, each animal was anesthetized with pentobarbital Na (45 mg/kg), and brain was perfused with 4% paraformaldehyde solution and removed. From the brain was prepared a piece of cerebral preparation containing hippocampus. It was placed in Carnoy's fixative overnight for fixation and embedded in paraffin, from which sliced coronal preparations of 10 μm thick were prepared. Each cerebral preparation was stained with hematoxylin-eosin and the rate of injury (%) in pyramidal cell layer extending from paramedian to CA4 was observed using two-dimensional image analyzer (Cosmozon IS, Nicon).

[4] = mouse, in vivo, ip, 100 mg/kg, 1440 min
[5] = i.p., compounds (a), (c): 100 mg/kg once a day for three days, control = 1.00
[6] = i.p., compounds (a), (c): 100 mg/kg once a day for three days, liver microsomes
[7] = three days, compared with the control

Molecule | deethylation activity (7-alkoxycumarin-O-dialkylase) ([1]; mouse, in vivo, ip, 100 mg/kg) | demethylation activity (7-alkoxycumarin-O-dialkylase) ([1]; mouse, in vivo, ip, 100 mg/kg) | depropylation activity (7-alkoxycumarin-O-dialkylase) ([1]; mouse, in vivo, ip, 100 mg/kg) | deethylation activity, ratio to control (in parentheses) [1, 4] | demethylation activity, ratio to control (in parentheses) [1, 4] | depropylation activity, ratio to control (in parentheses) [1, 4] | IC50 [2] [µM] | injury (%) in pyramidal cell layer ([3]; 12.5 mg/kg i.p.) [%] | inhibition (%) of injury ([3]; 12.5 mg/kg i.p.) | injury (%) in pyramidal cell layer ([3]; 25.0 mg/kg i.p.) [%] | inhibition (%) of injury ([3]; 25.0 mg/kg i.p.) | injury (%) in pyramidal cell layer ([3]; 50.0 mg/kg i.p.) [%] | inhibition (%) of injury ([3]; 50.0 mg/kg i.p.) | deethylation activity, ratio to control (in parentheses) [1, 5] | demethylation activity, ratio to control (in parentheses) [1, 5] | depropylation activity, ratio to control (in parentheses) [1, 5] | deethylation activity (7-alkoxycumarin-O-dialkylase) [1, 6] | demethylation activity (7-alkoxycumarin-O-dialkylase) [1, 6] | depropylation activity (7-alkoxycumarin-O-dialkylase) [1, 6] | further results
O=C1CCCN1C(=O)NCCCN1CCC(c2ccc(Cl)c(Cl)c2)CC1 [Compound (a), 1-[3-{4-(3,4-Dichlorophenyl)piperidin-1-yl}-propylcarbamoyl]-2-oxopyrrolidine] | 2.59 ± 0.27 nmol/min/mg of microsome protein | 2.79 ± 0.33 nmol/min/mg of microsome protein | 1.08 ± 0.12 nmol/min/mg of microsome protein | 0.98 | 1.08 | 0.89 | 0.13 | 45.9 ± 2.1 | +8.0% | 33.6 ± 5.3 | +32.7% | 0 | +100% | – | – | – | – | – | – | enzyme induction (in words) ([1]; mouse, in vivo): no enzyme induction was observed; serotonin uptake inhibitory activity (in words) ([2]; compared to compound (b)): much more potent serotonin uptake inhibitory activity; inhibition of delayed necrosis of hippocampus CAI pyramidal cells (in words) ([3]; 50 mg/kg i.p.): completely inhibited; inhibition of delayed necrosis of hippocampus CAI pyramidal cells (in words) ([3]; 12.5 and 25 mg/kg i.p.): significantly inhibited
O=c1cc(-c2ccccc2)oc2ccc3ccccc3c12 [β-naphtoflavone, β-naphthoflavone] | 5.26 ± 0.28 nmol/min/mg of microsome protein | 1.94 ± 0.08 nmol/min/mg of microsome protein | 2.97 ± 0.20 nmol/min/mg of microsome protein | 5.06 | 2.04 | 6.19 | – | – | – | – | – | – | – | – | – | – | – | – | – | –
O=C1CCCN1C(=O)NCCCN1CC=C(c2ccc(Cl)c(Cl)c2)CC1 [Compound (c)] | – | – | – | – | – | – | – | – | – | – | – | – | – | 1.99 | 1.61 | 2.20 | 2.29 ± 0.18 nmol/min/mg of microsome protein | 1.83 ± 0.19 nmol/min/mg of microsome protein | 0.99 ± 0.55 nmol/min/mg of microsome protein | enzyme induction (in words) ([1]; mouse liver, three days): carcinogenic enzyme induction of β-naphthoflavone type (3-methylcholanthrene type); increase in deethylation and depropylation activities [1, 7]: 1.99-2.20 times; increase in demethylation activity [1, 7]: 1.61 times
1-[3-{4-(3,4-dichlorophenyl)-piperidin-1-yl}propylcarbamoyl]-2-oxopyrrolidin [Compound (b)] | – | – | – | – | – | – | 23 | 44.0 ± 3.2 | +2.8% | 28.1 ± 8.3 | +38.0% | 30.7 ± 3.9 | +32.1% | – | – | – | – | – | – | –
CCC1(c2ccccc2)C(=O)NC(=O)NC1=O [phenobalbital, phenobarbital] | – | – | – | – | – | – | – | – | – | – | – | – | – | 2.53 | 2.29 | 2.20 | 2.63 ± 0.18 nmol/min/mg of microsome protein | 2.18 ± 0.13 nmol/min/mg of microsome protein | 1.06 ± 0.06 nmol/min/mg of microsome protein | –
